Experimental data taken from ChEMBL document CHEMBL1131702, “Synthesis and biological activity of KCB-328 and its analogues: novel class III antiarrhythmic agents with little reverse frequency dependence” (1999).

Experiments:
[1] = species on record: Cavia porcellus; assay: Effective refractory period of contractile response in isolated guinea-pig papillary muscles at 3 Hz and 1 uM.; type: functional, Muscle tissue
[2] = Ratio of ERPc prolongation was measured as percent change at 3 Hz/1 Hz; type: functional
[3] = species on record: Cavia porcellus; assay: Effective refractory period of contractile response in isolated guinea-pig papillary muscles at 1 Hz and 1 uM.; type: functional, Muscle tissue
[4] = species on record: Cavia porcellus; assay: Effect of 1 uM of compound, on action potential duration (APD) was determined in isolated guinea-pig papillary muscles at 1 Hz.; type: functional, Muscle tissue
[5] = Ratio of APD prolongation was measured as percent change at 3 Hz/1 Hz; type: functional
[6] = species on record: Cavia porcellus; assay: Effect of 1 uM of compound, on action potential duration (APD) was determined in isolated guinea-pig papillary muscles at 3 Hz; type: functional, Muscle tissue

| Structure (SMILES) | Delta ERPc [1] | Ratio [2] | Delta ERPc [3] | Delta APD90 [4] | Ratio [5] | Delta APD90 [6] |
| --- | --- | --- | --- | --- | --- | --- |
| COc1cc(Cl)c(CCN(C)CCOc2ccc(NS(C)(=O)=O)cc2Cl)cc1OC | 17.8% | 79 | 22.4% |  |  |  |
| CN(CCOc1ccc(NS(C)(=O)=O)cc1)CCc1ccc(NS(C)(=O)=O)cc1 [DOFETILIDE] | 30.8% | 65 | 49.9% | 45.6% | 59 | 26.8% |
| COc1ccc(CCN(C)CCOc2ccc(NS(C)(=O)=O)cc2N)cc1OC | 32.6% | 105 | 31% | 33.3% | 86 | 28.6% |
| COc1cc(C)c(CCN(C)CCOc2ccc(NS(C)(=O)=O)cc2Cl)cc1OC | 33.1% | 118 | 28% | 37.8% | 82 | 22.2% |
| COc1ccc(CCN(C)CCOc2ccc(NS(C)(=O)=O)cc2F)cc1OC | 25.9% | 75 | 34.5% |  |  |  |
| Cc1cccc(CCN2CCC(C(=O)c3ccc(NS(C)(=O)=O)cc3)CC2)n1 | 30.2% | 71 | 41.8% |  |  |  |
| COc1cc(N)c(CCN(C)CCOc2ccc(NS(C)(=O)=O)cc2-n2cccc2)cc1OC | 24.7% | 62 | 39.4% |  |  |  |
| COc1ccc(CCN(C)CCOc2ccc(NS(C)(=O)=O)cc2OCc2ccccc2)cc1OC | 30% | 114 | 26.3% |  |  |  |
| COc1cc(N)c(CCN(C)CCOc2ccc(NS(C)(=O)=O)cc2Cl)cc1OC | 34.7% | 126 | 27.5% |  |  |  |
| COc1cc(CCN(C)CCOc2ccc(NS(C)(=O)=O)cc2Cl)c([N+](=O)[O-])cc1OC | 36.2% | 123 | 29.4% |  |  |  |
| COc1ccc(CCN(C)CCOc2ccc(NS(C)(=O)=O)cc2Br)cc1OC | 25.2% | 76 | 32.8% |  |  |  |
| COc1cc(C)c(CCN(C)CCOc2ccc(NS(C)(=O)=O)cc2-n2cccc2)cc1OC | 26.3% | 81 | 32.1% |  |  |  |
| COc1ccc(CCN(C)CCOc2ccc(NS(C)(=O)=O)cc2)cc1OC | 28.9% | 48 | 60.1% |  |  |  |
| COc1ccc(CCN(C)CCOc2ccc(NS(C)(=O)=O)cc2I)cc1OC | 21.2% | 73 | 28.9% |  |  |  |
| COc1ccc(CCN(C)CCOc2ccc(NS(C)(=O)=O)cc2[N+](=O)[O-])cc1OC | 25% | 75 | 33.3% |  |  |  |
| COc1ccc(CCN(C)CCOc2ccc(NS(C)(=O)=O)cc2NC(C)=O)cc1OC | 27.7% | 70 | 39.3% |  |  |  |
| COc1ccc(CCN(C)CCOc2ccc(NS(C)(=O)=O)cc2C)cc1OC | 27.2% | 94 | 28.9% |  |  |  |
| COc1ccc(CCN(C)CCOc2ccc(NS(C)(=O)=O)cc2Cl)cc1OC | 30.8% | 95 | 32.2% |  |  |  |
| COc1ccc(CCN(C)CCOc2ccc(NS(C)(=O)=O)cc2Nc2nccs2)cc1OC | 36.8% | 84 | 43.4% |  |  |  |
| COc1ccc(CCN(C)CCOc2ccc(NS(C)(=O)=O)cc2-n2cccc2)cc1OC | 40.1% | 128 | 31.2% | 26.4% | 99 | 26.2% |
